Laboratory results taken from patent US20060069132A1, “Azolecarboxamide herbicides” (priority 2004, published 2006).

Columns and labels:
wild oat (AVEFA) = assay: Test J Compounds 2 and 6 alone and in combination with other herbicides, foliage spray; format: in vivo, Avena fatua; set-up: key: 0 = no effect, 100 = complete control; conditions: applied alone
Method in brief: (§1)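 Greenhouse plants grown 7–11 days to 2–18 cm (1- to 4-leaf stage) were foliage-sprayed at 541 L/ha with compounds alone or mixed with atrazine, terbacil, hexazinone, diuron or paraquat in aqueous solvent with nonionic surfactant. Three replicates; injury rated visually 15 days after treatment, 0–100 versus untreated controls.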

morningglory (IPOCO) = assay: as above; format: in vivo, Ipomoea coccinea; set-up: key: 0 = no effect, 100 = complete control; conditions: applied alone
From the text: (§2) Seeds of test plants consisting of barnyardgrass (ECHCG; Echinochloa crus-galli (L.) Beauv.), blackgrass (ALOMY; Alopecurus myosuroides Huds.), Surinam grass (BRADC; Urochloa decumbens (Staph) R. D. Webster, previously named Brachiaria decumbens Stapf), cocklebur (XANST, Xanthium strumarium L.), corn (ZEAMD, Zea mays L. cv. ‘Pioneer 33G26’), large crabgrass (DIGSA, Digitaria sanguinalis (L.) Scop.), giant foxtail (SETFA, Setaria faberi Herrm.), lambsquarters (CHEAL, Chenopodium album L.), morningglory (IPOCO, Ipomoea coccinea L.), pigweed (AMARE, Amaranthus retroflexus L.), velvetleaf (ABUTH, Abutilon theophrasti Medik.) wheat (TRZAS, Triticum aestivum L. cv. ‘Recital’) and wild oat (AVEFA, Avena fatua L.) were planted in Redi-Earth® planting medium (Scotts Company, 14111 Scottslawn Road, Marysville, Ohio 43041) comprising spaghnum peat moss and vermiculite. Seeds of small-seeded species were planted about 1 cm deep; larger seeds were planted about 2.5 cm deep. Plants were grown in a greenhouse using supplemental lighting to maintain a photoperiod of about 14 hours; daytime and nighttime temperatures were about 24-30° C. and 22-25° C., respectively. Balanced fertilizer was applied through the watering system. The plants were grown for 7 to 11 days so that at time of treatment the plants ranged in height from 2 to 18 cm (1- to 4-leaf stage). Treatments consisted of Compounds 2 and 6 (technical material), atrazine (90DF), terbacil (Sinbar® 80DF), hexazinone (Velpar® 75WG), diuron (Karmex® 80WP) and paraquat (Gramoxone® Extra, 37%) alone and in combination, suspended or dissolved in an aqueous solvent comprising a nonionic surfactant and applied as a foliage spray using a volume of 541 L/ha. Each treatment was triply replicated. […] Treated plants and controls were maintained in the greenhouse and watered as needed with care to not wet the foliage for the first 24 hours after treatment. The effects on the plants 15 days after treatment were visually compared to untreated controls. Plant response ratings, listed in Table J as the means of the thee replicates, are based on a scale of 0 to 100 where 0 is no effect and 100 is complete control. Also listed in Table J are the expected effects for the mixtures calculated using Colby's Equation.

large crabgrass (DIGSA) = assay: as above; format: in vivo, Digitaria sanguinalis; set-up: key to DIGSA Obsd.: 0 = no effect, 100 = complete control; conditions: for DIGSA Obsd.: applied alone; for observed effect of mixture compared with additive effect expected from Colby's Equation: crabgrass, foliage spray, 15 days after treatment
Method in brief: as §1

wheat (TRZAS) = assay: as above; format: in vivo, Triticum aestivum; set-up: key: 0 = no effect, 100 = complete control; conditions: applied alone
Method in brief: as §1

blackgrass (ALOMY) = assay: as above; format: in vivo, Alopecurus myosuroides; set-up: key: 0 = no effect, 100 = complete control; conditions: applied alone
From the text: (§3) Colby's Equation was used to calculate the expected additive herbicidal effect of the mixtures of Compound 6 with Harmony® Extra (i.e. a 2:1 mixture by weight of thifensulfuron-methyl and tribenuron-methyl). Colby's Equation (Colby, S. R. “Calculating Synergistic and Antagonistic Responses of Herbicide Combinations,” Weeds, 15(1), pp 20-22 (1967)) calculates the expected additive effect of herbicidal mixtures, and for two active ingredients is of the form: Pa+b=Pa+Pb−(PaPb/100) wherein • Pa+b is the percentage effect of the mixture expected from additive contribution of the individual components, • Pa is the observed percentage effect of the first active ingredient at the same use rate as in the mixture, and • Pb is the observed percentage effect of the second active ingredient at the same use rate as in the mixture.
as §2

lambsquarters (CHEAL) = assay: as above; format: in vivo, Chenopodium album; set-up: key: % herbicidal effect (observed); conditions: applied alone
From the text: as §3, §2

cocklebur (XANST) = assay: as above; format: in vivo, Xanthium strumarium; set-up: key: 0 = no effect, 100 = complete control; conditions: applied alone
Method in brief: as §1

corn (ZEAMD) = assay: as above; format: in vivo, Zea mays; set-up: key: percentage herbicidal effect (observed); conditions: applied alone
Method in brief: as §1

velvetleaf (ABUTH) = assay: as above; format: in vivo, Abutilon theophrasti; set-up: key: 0 = no effect, 100 = complete control; conditions: applied alone
Method in brief: as §1

pigweed (AMARE) = assay: as above; format: in vivo, Amaranthus retroflexus; set-up: key: 0 = no effect, 100 = complete control; conditions: applied alone
From the text: as §3, §2

windgrass = assay: Test F pre-/postemergence herbicide test; format: in vivo, Apera spica-venti; conditions: 125 g ai/ha
From the text: (§4) Seeds of plant species selected from annual blugrass (Poa annua L.), blackgrass (Alopecurus myosuroides Huds.), catchweed bedstraw (Gallium aparine L.), common chickweed (Stellaria media (L.) Vill./Cyr.), downy bromegrass (Bromus tectorum L.), green foxtail (Setaria viridis (L.) Beauv.), Italian ryegrass (Lolium multiflorum Lam.), kochia (Kochia scoparia (L.). Schrad.), lambsquarters (Chenopodium album L.), littleseed canarygrass (Phalaris minor Retz.), pigweed (Amaranthus retroflexus L.), Russian thistle (Salsola kali L. ssp. Ruthenica (Iljin) Soo), wild buckwheat (Polygonum convolvulus L.), wild mustard (Sinapis arvensis L.), wild oat (Avena fatua L.), windgrass (Apera spica-venti (L.) Beauv.), winter barley (Hordeum vulgare L.), and wheat (Triticum aestivum L.) were planted and treated preemergence with test chemicals formulated in a non-phytotoxic solvent mixture which included a surfactant.
(§5) At the same time, plants selected from these crop and weed species were treated with postemergence applications of some of the test chemicals formulated in the same manner. Plants ranged in height from 2 to 18 cm (1- to 4-leaf stage) for postemergence treatments. Treated plants and controls were maintained in a greenhouse for 12 to 14 days, after which time all species were compared to controls and visually evaluated. […]

wild buckwheat = assay: Test F pre-/postemergence herbicide test; format: in vivo, Polygonum convolvulus; conditions: 125 g ai/ha
From the text: as §4, §5

SMILES: CCNC(=O)c1ccc(F)c(NC(=O)c2cc(C(C)(C)C)nn2CC)c1 [Compound 2, 3-(1,1-dimethylethyl)-1-ethyl-N-[5-[(ethylamino)carbonyl]-2-fluorophenyl]-1H-pyrazole-5-carboxamide]
- AVEFA Obsd. (wild oat (AVEFA); 62 g a.i./ha): 8
- AVEFA Obsd. (wild oat (AVEFA); 125 g a.i./ha): 15
- IPOCO Obsd. (morningglory (IPOCO); 62 g a.i./ha): 17
- IPOCO Obsd. (morningglory (IPOCO); 125 g a.i./ha): 27
- DIGSA Obsd. (large crabgrass (DIGSA); 62 g a.i./ha): 5
- DIGSA Obsd. (large crabgrass (DIGSA); 125 g a.i./ha): 15
- observed effect of mixture compared with additive effect expected from Colby's Equation (large crabgrass (DIGSA); mixture with diuron): greater than additive
- observed effect of mixture compared with additive effect expected from Colby's Equation (large crabgrass (DIGSA); mixture with terbacil): greater than additive
- TRZAS Obsd. (wheat (TRZAS); 62 g a.i./ha): 8
- TRZAS Obsd. (wheat (TRZAS); 125 g a.i./ha): 10
- ALOMY Obsd. (blackgrass (ALOMY); 62 g a.i./ha): 15
- ALOMY Obsd. (blackgrass (ALOMY); 125 g a.i./ha): 13
- CHEAL Obsd. (lambsquarters (CHEAL); 62 g a.i./ha): 40
- CHEAL Obsd. (lambsquarters (CHEAL); 125 g a.i./ha): 55
- XANST Obsd. (cocklebur (XANST); 62 g a.i./ha): 50
- XANST Obsd. (cocklebur (XANST); 125 g a.i./ha): 58
- ZEAMD Obsd. (corn (ZEAMD); 62 g a.i./ha): 25
- ZEAMD Obsd. (corn (ZEAMD); 125 g a.i./ha): 65
- ABUTH Obsd. (velvetleaf (ABUTH); 62 g a.i./ha): 17
- ABUTH Obsd. (velvetleaf (ABUTH); 125 g a.i./ha): 18
- AMARE Obsd. (pigweed (AMARE); 62 g a.i./ha): 47
- AMARE Obsd. (pigweed (AMARE); 125 g a.i./ha): 68

SMILES: CCc1nn(C(C)(C)C)cc1C(=O)Nc1cc(C(=O)N(CC)CC)ccc1F [Compound 223]
- Plant response rating (0-100), Windgrass (windgrass; Postemergence): 50
- Plant response rating (0-100), Windgrass (windgrass; Preemergence): 100
- Plant response rating (0-100), Buckwheat, Wild (wild buckwheat; Postemergence): 40
- Plant response rating (0-100), Buckwheat, Wild (wild buckwheat; Preemergence): 55
